Experimental data reported in article PMC10096947 (2023).

Test system: DOX aptamer (DNA, aptamer) ACCATCTGTGTAAGGGGTAAGGGGTGGT
Assay: electrochemical aptasensor, SWV, Langmuir isotherm fit
Settings: PBS 0.1 M (Na+/K+ concentrations not given), PBS pH 7.4, room temperature, 20 min incubation, immobilised aptamer

SMILES: COc1cccc2c1C(=O)c1c(O)c3c(c(O)c1C2=O)C[C@@](O)(C(=O)CO)C[C@@H]3O[C@H]1C[C@H](N)[C@H](O)[C@H](C)O1
- apparent dissociation constant: 2.55 µM
